ChEMBL document CHEMBL5653615 (J Biol Chem, 2013)

Key:
[1] = biological target: Myosin light chain kinase, smooth muscle (Homo sapiens) (UniProt Q15746); assay: Inhibition of human MYLK at 18.6 nM by HotSpot assay relative to control
[2] = biological target: Homeodomain-interacting protein kinase 1 (Homo sapiens) (UniProt Q86Z02); assay: Inhibition of human HIPK1 at 18.6 nM by HotSpot assay relative to control
[3] = biological target: T1, Mitogen-activated protein kinase kinase kinase 5 (Homo sapiens) (UniProt Q99683); assay: Inhibition of human ASK1 at 18.6 nM by HotSpot assay relative to control
T1 sequence (whole entry): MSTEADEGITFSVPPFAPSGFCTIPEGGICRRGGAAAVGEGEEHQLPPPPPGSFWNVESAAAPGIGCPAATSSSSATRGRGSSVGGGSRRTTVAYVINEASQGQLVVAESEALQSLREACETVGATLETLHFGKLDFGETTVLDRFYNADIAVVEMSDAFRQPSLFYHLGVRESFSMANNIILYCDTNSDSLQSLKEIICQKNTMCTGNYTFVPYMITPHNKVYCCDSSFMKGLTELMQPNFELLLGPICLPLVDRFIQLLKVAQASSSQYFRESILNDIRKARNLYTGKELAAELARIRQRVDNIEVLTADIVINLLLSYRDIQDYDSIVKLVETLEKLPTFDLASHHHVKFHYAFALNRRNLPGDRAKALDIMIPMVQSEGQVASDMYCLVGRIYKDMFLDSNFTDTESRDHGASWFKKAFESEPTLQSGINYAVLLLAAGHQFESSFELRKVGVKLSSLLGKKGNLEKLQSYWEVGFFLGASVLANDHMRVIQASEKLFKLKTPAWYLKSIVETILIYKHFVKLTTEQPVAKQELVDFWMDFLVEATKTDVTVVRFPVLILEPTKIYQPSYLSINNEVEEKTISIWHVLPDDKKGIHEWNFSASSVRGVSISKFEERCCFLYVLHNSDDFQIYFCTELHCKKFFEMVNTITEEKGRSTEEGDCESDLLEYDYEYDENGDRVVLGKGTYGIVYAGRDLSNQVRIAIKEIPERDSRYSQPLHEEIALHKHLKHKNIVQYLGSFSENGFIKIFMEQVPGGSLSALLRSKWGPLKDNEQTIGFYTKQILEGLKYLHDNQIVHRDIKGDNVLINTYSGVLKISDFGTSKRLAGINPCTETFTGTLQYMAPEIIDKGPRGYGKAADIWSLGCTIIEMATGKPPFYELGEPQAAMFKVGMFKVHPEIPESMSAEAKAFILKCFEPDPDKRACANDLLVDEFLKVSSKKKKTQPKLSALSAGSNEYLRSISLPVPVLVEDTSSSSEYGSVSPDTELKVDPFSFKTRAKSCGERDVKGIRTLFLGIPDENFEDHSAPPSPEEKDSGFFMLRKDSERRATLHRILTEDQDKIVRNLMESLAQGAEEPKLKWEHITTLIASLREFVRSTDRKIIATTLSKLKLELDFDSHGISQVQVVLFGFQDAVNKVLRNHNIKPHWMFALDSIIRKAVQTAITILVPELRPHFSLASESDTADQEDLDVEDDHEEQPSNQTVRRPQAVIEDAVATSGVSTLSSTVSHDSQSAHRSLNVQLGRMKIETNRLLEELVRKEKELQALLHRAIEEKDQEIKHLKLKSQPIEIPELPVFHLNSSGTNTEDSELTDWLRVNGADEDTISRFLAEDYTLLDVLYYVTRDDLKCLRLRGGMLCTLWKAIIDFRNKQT

[4] = biological target: T2, Inhibitor of nuclear factor kappa-B kinase subunit beta (Homo sapiens) (UniProt O14920); assay: Inhibition of human IKKb at 18.6 nM by HotSpot assay relative to control
T2 sequence (whole entry): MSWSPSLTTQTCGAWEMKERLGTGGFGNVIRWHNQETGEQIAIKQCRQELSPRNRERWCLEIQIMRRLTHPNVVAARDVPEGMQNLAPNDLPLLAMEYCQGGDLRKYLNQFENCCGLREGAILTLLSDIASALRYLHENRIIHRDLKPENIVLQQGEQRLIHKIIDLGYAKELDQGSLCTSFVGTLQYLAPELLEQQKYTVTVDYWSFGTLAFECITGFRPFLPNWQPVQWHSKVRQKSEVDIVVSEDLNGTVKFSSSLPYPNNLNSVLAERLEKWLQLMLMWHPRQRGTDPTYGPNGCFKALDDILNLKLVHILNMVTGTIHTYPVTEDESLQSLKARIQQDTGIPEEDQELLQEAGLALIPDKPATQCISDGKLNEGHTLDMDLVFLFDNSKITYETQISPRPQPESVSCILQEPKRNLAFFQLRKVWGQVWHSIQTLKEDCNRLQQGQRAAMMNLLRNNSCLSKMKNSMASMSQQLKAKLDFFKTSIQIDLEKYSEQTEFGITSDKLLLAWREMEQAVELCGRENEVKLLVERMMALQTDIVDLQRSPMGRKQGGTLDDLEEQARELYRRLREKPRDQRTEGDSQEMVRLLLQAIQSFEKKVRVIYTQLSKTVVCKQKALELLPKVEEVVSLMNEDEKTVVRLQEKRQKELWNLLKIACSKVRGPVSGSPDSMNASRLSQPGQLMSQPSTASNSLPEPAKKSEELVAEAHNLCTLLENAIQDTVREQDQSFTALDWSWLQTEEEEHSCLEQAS

[5] = biological target: Death-associated protein kinase 2 (Homo sapiens) (UniProt Q9UIK4); assay: Inhibition of human DAPK2 at 18.6 nM by HotSpot assay relative to control
[6] = biological target: Calcium/calmodulin-dependent protein kinase type 1D (Homo sapiens) (UniProt Q8IU85); assay: Inhibition of human CAMK1d at 18.6 nM by HotSpot assay relative to control
[7] = biological target: Serine/threonine-protein kinase SIK2 (Homo sapiens) (UniProt Q9H0K1); assay: Inhibition of human SIK2 at 1.82 nM by HotSpot assay relative to control
[8] = biological target: Tyrosine-protein kinase Srms (Homo sapiens) (UniProt Q9H3Y6); assay: Inhibition of human SRMS at 1.82 nM by HotSpot assay relative to control
[9] = biological target: Casein kinase I isoform gamma-3 (Homo sapiens) (UniProt Q9Y6M4); assay: Inhibition of human CK1g3 at 1.82 nM by HotSpot assay relative to control
Chain of Casein kinase I isoform gamma-3 (Homo sapiens) (Q9Y6M4 whole entry, looked up, canonical isoform): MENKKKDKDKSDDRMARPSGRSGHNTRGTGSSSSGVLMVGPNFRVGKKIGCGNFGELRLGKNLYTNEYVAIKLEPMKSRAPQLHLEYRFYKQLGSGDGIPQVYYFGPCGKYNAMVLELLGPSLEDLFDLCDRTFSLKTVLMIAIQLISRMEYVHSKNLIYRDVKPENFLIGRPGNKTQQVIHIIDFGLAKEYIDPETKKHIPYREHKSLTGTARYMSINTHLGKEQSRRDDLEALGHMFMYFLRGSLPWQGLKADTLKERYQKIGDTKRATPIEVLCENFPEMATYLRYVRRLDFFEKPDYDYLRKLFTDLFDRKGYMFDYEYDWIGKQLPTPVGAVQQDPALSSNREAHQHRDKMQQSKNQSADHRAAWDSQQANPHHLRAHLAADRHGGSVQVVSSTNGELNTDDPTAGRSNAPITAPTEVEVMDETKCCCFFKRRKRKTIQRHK

Chain of Myosin light chain kinase, smooth muscle (Homo sapiens) (Q15746 whole entry): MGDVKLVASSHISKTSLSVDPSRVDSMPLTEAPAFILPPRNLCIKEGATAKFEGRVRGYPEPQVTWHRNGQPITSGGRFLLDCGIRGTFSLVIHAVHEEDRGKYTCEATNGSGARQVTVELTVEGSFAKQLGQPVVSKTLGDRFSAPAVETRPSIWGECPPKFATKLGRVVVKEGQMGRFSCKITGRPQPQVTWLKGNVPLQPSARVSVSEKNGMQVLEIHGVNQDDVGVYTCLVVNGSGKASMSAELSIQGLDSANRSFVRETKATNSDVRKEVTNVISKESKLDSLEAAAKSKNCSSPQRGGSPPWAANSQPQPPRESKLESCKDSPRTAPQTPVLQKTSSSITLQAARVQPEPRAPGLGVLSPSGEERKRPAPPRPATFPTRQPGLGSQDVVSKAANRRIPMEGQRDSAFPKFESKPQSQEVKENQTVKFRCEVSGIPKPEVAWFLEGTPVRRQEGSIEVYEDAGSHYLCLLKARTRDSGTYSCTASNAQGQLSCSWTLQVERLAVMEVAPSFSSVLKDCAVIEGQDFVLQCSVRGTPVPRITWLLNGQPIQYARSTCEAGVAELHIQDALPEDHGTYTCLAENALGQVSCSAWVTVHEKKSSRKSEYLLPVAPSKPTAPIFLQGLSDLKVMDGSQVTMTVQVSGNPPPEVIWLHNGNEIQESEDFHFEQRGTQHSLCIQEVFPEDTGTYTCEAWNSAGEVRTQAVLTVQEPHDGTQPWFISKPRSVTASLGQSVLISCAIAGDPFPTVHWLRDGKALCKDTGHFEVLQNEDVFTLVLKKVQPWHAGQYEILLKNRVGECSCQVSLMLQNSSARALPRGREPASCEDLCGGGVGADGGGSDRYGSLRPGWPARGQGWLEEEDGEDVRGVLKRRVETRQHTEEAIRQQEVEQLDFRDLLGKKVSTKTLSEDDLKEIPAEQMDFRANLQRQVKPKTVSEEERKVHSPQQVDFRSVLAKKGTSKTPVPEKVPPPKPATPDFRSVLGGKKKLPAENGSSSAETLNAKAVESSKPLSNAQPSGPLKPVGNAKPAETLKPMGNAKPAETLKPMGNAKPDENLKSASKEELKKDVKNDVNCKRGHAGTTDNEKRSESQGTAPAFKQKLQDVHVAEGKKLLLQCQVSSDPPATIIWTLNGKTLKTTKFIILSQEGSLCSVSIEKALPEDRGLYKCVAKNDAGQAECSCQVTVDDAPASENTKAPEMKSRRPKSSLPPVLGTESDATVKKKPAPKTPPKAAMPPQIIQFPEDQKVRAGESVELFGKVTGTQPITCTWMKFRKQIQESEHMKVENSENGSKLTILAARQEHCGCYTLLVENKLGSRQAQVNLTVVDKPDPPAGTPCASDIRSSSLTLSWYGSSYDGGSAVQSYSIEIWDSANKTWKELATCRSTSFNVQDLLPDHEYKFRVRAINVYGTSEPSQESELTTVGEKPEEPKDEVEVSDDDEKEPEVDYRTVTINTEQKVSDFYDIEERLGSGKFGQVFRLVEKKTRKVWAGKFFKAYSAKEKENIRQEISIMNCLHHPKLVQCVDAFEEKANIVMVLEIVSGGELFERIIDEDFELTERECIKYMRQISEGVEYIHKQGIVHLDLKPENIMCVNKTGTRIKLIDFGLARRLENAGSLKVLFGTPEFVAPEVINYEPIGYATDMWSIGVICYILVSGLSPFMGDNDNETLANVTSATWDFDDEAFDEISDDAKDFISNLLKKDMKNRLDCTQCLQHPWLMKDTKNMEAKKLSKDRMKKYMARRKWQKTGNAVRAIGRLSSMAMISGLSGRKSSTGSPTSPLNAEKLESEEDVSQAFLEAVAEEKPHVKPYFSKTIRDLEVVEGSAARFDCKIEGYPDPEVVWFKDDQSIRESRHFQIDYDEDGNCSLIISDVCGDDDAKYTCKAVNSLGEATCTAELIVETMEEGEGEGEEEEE
Chain of Tyrosine-protein kinase Srms (Homo sapiens) (Q9H3Y6 whole entry, canonical isoform): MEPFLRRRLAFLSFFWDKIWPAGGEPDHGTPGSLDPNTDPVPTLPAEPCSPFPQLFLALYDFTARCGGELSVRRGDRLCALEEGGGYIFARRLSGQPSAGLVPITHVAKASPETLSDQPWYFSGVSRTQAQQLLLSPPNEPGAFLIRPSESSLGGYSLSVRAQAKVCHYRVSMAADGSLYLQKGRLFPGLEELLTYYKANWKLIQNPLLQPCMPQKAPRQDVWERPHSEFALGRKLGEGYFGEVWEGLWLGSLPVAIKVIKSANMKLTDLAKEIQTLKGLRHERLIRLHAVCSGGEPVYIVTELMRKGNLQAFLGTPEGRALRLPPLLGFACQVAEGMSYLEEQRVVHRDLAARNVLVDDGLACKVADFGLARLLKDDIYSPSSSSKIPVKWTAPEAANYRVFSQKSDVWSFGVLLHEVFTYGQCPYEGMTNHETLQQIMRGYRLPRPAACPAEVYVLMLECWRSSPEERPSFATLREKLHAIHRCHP
Chain of Serine/threonine-protein kinase SIK2 (Homo sapiens) (Q9H0K1 whole entry, looked up): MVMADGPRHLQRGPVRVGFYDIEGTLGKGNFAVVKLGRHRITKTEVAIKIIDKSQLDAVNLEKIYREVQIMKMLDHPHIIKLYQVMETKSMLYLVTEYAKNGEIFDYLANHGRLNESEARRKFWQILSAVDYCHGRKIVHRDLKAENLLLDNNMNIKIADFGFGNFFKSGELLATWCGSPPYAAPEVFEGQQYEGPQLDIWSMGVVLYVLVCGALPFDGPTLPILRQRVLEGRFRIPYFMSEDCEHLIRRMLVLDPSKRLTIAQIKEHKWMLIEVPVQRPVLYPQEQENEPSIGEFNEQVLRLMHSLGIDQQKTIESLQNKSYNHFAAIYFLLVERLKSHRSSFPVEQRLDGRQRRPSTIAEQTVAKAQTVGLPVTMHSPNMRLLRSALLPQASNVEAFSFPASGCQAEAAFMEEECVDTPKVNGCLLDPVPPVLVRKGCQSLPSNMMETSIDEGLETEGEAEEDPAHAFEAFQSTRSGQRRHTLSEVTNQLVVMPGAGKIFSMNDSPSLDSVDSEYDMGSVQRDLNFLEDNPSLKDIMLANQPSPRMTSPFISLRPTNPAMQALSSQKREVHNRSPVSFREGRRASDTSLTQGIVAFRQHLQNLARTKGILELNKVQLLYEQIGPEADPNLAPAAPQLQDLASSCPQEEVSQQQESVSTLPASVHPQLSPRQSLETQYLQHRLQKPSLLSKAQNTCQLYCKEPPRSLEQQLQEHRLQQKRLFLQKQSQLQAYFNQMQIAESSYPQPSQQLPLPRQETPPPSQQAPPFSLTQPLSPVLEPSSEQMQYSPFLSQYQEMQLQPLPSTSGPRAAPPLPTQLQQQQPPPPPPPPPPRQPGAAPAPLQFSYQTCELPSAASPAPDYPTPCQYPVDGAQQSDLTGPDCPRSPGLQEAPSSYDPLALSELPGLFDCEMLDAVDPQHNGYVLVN
Chain of Death-associated protein kinase 2 (Homo sapiens) (Q9UIK4 whole entry, looked up): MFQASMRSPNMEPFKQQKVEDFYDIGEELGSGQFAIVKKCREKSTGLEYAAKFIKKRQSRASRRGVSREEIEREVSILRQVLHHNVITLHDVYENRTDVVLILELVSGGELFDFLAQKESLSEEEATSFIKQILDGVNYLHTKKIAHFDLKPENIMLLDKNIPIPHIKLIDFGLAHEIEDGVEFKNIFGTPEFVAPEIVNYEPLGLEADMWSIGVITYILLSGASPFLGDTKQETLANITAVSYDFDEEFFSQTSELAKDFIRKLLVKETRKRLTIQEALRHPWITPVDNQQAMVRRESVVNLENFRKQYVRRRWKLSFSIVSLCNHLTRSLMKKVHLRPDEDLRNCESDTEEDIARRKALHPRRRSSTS
Chain of Calcium/calmodulin-dependent protein kinase type 1D (Homo sapiens) (Q8IU85 whole entry, looked up): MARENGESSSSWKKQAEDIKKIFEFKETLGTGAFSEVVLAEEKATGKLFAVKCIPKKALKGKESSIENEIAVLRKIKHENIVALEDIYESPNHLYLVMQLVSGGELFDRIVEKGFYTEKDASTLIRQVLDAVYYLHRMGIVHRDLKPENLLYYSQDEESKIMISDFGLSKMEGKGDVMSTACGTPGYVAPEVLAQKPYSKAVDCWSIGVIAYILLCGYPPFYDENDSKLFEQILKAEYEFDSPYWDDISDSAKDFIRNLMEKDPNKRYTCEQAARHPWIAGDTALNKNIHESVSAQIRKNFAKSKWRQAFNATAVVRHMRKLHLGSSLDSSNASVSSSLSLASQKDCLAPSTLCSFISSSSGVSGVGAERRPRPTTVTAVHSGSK

Row | inhibition [1] | inhibition [2] | inhibition [3] | inhibition [4] | inhibition [6] | inhibition [7] | inhibition [8] | inhibition [9] | Compound | inhibition [5]
1 | 2.54% | -4.32% | -8.46% | -2.87% | -0.1% | – | – | – | C[C@]1(O)C[C@@H](c2nc(-c3ccc4ccc(-c5ccccc5)nc4c3)c3c(N)nccn32)C1 | 0.74%
2 | – | – | – | – | – | -6.97% | -3.77% | 0.91% | C[C@@]1(C(=O)Nc2ccc(F)nc2)CCCN1c1nc(Nc2cc(C3CC3)n[nH]2)c2cccn2n1 | –
